Source: US5773469A, “Diaryl antimicrobial agents” (Ortho Pharmaceutical Corporation, priority 1996, dated 1998)
Structures can show the parent of a compound that is named as a salt.

Legend:
Kinase A and SpoOF = target: T1, Kinase A and SpoOF (Bacillus subtilis, UniProt P16497); assay: Autophosphorylation of Kinase A and transphosphorylation of SpoOF assay (HPK in vitro assay); format: biochemical; conditions: inhibition of KinA autophosphorylation / SpoOF transphosphorylation, [32P]ATP, gel and phosphoimager
T1 sequence (P16497 1-606): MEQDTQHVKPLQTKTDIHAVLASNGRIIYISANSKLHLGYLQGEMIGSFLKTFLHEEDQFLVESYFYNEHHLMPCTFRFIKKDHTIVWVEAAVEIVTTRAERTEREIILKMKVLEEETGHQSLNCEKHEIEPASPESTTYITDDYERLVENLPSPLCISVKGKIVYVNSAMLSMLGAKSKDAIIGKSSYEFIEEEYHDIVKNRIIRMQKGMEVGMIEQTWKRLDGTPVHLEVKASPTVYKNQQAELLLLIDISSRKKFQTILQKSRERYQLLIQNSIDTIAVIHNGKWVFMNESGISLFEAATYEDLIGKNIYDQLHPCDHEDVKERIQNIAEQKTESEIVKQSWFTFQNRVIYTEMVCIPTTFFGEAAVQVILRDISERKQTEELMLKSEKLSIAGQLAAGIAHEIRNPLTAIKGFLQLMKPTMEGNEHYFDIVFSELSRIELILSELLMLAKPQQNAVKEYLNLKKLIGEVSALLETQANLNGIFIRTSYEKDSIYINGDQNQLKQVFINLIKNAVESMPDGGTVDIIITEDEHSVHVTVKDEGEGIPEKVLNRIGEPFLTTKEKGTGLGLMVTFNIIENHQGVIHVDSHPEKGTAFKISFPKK
Method: 1. Autophosphorylation of Kinase A and Transphosphorylation of SpoOF Assay
To study the effect of the compounds of the present invention on the signal transduction process in bacteria, the inhibiting effect of the compounds on the sporulation operon proteins Kinase A and SpoOF was examined. Specifically, the inhibition of autophosphorylation of Kinase A and the transphosphorylation of SpoOF was determined in the following assays. The SpoOF response regulator is the primary substrate for phosphorylation by the protein kinase, Kin A, involved in the sporulation process in bacteria. See D. Burbulys, K. A. Trach, J. A. Hoch, Cell, 64, 545-552 (1991).
The following stock reagents were either prepared and used promptly or stored at the indicated temperature:
8× Salts: 2M KCl (5 mL), 1M MgCl2 (800 mL), 1M CaCl2 (100 mL), 10 mg/mL phenylmethylsulfonyl fluoride (200 mL), 1M dithioreitol (50 mL), 0.25M Na2 EDTA (32 mL) and H2 O 3.82 mL (-20°C.)
5× Loading Dye: 0.5M TRIS-HCl-pH 6.8 (7.5 mL), 10% SDS (2 mL) 0.1% bromophenol blue (0.5 mL), 100% glycerol (3 mL) and 12.5M 2-mercaptoethanol (0.3 mL)
1-1.3 mg/mL KinA:15 mM TRIS-HCl, pH 8.0, 6 mM KCl; 4 mM 2-mercaptoethanol; 40% glycerol (-20 C.)
1 mg/mL Spo0F: 17.5 mM TRIS-HCl, pH 8.0; 0.7 mM KCl; 0.7 mM MgCl2; 0.7 mM CaCl2; 5 mM 2-mercaptoethanol; 30% Glycerol (-20°C.)
5% Stacking Gel: 40% 29:1 acrylamide:bis acrylamide (1.25 mL), 0.5M TRIS-HCl, pH 6.8 (2.5 mL), 10% SDS (0.1 mL), D-H2 O (6.15 mL) 10% ammonium persulfate (100 mL) and TEMED (25 mL)
SDS Running Buffer: TRIS-BASE (3.02 g), glycine (14.4 g) SDS (1 g), D-H2 O (to 1 L)
The reaction mixture was prepared from 8× Salts (87 μL), 1M TRIS, pH 8 (118 EL), 50% glycerol (63 μL), Spo0F (14.1 μL) and KinA (7.0 μL). Microcentrifuge tubes were charged with the reaction mixture (18.5 μL) and a 1.0 mM solution of the test compound in 5% DMSO (18.5 μL), and incubated for 15 min on ice. 100 mM ATP solution (3.0 μI, containing 625 μCi [^32 P]ATP) was added, and the mixture left for 10 minutes at room temperature. The reaction was quenched with 5× loading dye (10 μL per tube) and the samples were loaded on a prepared 5% Stacking Gel, or stored on dry ice until ready for use. The prepared wells were filled with SDS Running Buffer, samples were loaded into the wells, and 80 volts were applied to the gel until the dye front reached the bottom of the stacking gel. The voltage was then increased to 250 volts until electrophoresis was complete. Radioactive bands in the gel corresponding to phosphorylated KinA and SpoOF were imaged and quantitated with a phosphoimager.
If either enzyme was inhibited (as evidenced by the absence of labelled protein in the developed gel), an IC50 was calculated by running the assay with a range of inhibitor concentrations from 1 to 500 μM. After electrophoresis of the reaction mixtures, percent inhibition was determined by measuring the concentration of radioactive phosphorus with a phosphoimager and calculating the values using a software program (BioRad Molecular Analyst).

[1] = test system: gram positive bacteria / Gram negative bacteria (Enterococcus faecalis, Staphylococcus aureus incl. methicillin resistant, Staphylococcus epidermidis …); assay: MIC antimicrobial assay (NCCLS microdilution broth method); format: cell-based; conditions: MIC value range over the selected gram positive and gram negative test organisms; 35° C., 16-20 hours
Method: 2. MIC Antimicrobial Assay
The in vitro antimicrobial activity of the compounds was determined by the microdilution broth method following the test method from the National Committee for Laboratory Standards (NCCLS). This method is described in the NCCLS Document M7-A2, Vol.10, No. 8 "Methods for Dilution Antimicrobial Susceptibility Test for Bacteria that Grow Aerobically-Second Edition."
In this method two-fold serial dilutions of drug in cation supplemented Mueller-Hinton broth are added to wells in microdilution trays. The test organisms are prepared by adjusting the turbidity of actively growing broth cultures so that the final concentration of test organism after it is added to the wells is approximately 5×10^4 CFUs/well).
Following inoculation of the microdilution trays, the trays are incubated at 35° C. for 16-20 hours and then read. […] The amount of growth in the wells containing the test compound is compared with the amount of growth in the growth-control wells (no test compound) used in each tray. The following test organisms were utilized in the assay:
Enterococcus faecalis ATCC 29212
Enterococcus faecalis oc 3041
Enterococcus faecalis oc 2993
Methicillin resistant Staphylococcus aureus oc 2089
Methicillin resistant Staphylococcus aureus oc 667
Staphylococcus aureus ATCC 29213
Staphylococcus aureus ATCC 6538
Staphylococcus epidermidis oc 2603
Escherichia coli oc 2530 ss […]

| Compound | IC50 (Kinase A and SpoOF) [µM] | MIC(G+/G-) [1] |
| --- | --- | --- |
| NCCc1ccc(O[C@@H]2CC[C@H](c3ccccc3)c3ccccc32)cc1 (relative stereo) [Compound 6, 2-[4-(ClS-4-PHENYL-1,2,3,4-TETRAHYDRO-1-NAPHTHOXY)PHENYL]-ETHYLAMINE OXALATE] | 68.9 |  |
| NCCc1ccc(OCCC(c2ccccc2)c2ccccc2)cc1 [Compound 2, 2-[4-(3,3-DIPHENYLPROPOXY)PHENYL]ETHYLAMINE] | 31.25 |  |
| N=C(N)NCc1cccc(OCCC(c2ccccc2)c2ccccc2)c1 [Compound 7, [3-(3,3-DIPHENYLPROPOXY)PHENYL]METHYLGUANIDINE BICARBONATE 0.5 HYDRATE] | 60 | 2-32 |
| NCCc1ccc(OCC=C(c2ccccc2)c2ccccc2)cc1 [Compound 9, 2-[4-(3,3-DIPHENYL-2-PROPENOXY)PHENYL]ETHYLAMINE HYDROCHLORIDE·0.5HYDRATE] | 41 |  |
| NCCc1ccc(OC(c2ccccc2)c2ccccc2)cc1 [Compound 10, 2-{4-(2-DIPHENYL-2-METHOXY)PHENYL}ETHYLAMINE·HYDROCHLORIDE·HYDRATE] | 68 |  |
| NCCCc1ccc(OCC=C(c2ccccc2)c2ccccc2)cc1 [Compound 11, 3-[4-(3,3-DIPHENYL-2-PROPENOXY)PHENYL]PROPYLAMINE·OXALATE] | 19.5 |  |
| O=CN1CCN(c2ccc(OCCC(c3ccccc3)c3ccccc3)cc2)CC1 [Compound 12, 1-FORMYL-4-[4-(3,3-DIPHENYLPROPOXY)PHENYL]PIPERAZINE·0.5 HYDRATE] | 165 |  |
| C1=C(c2ccc(OCCC(c3ccccc3)c3ccccc3)cc2)CCNC1 [Compound 15, 4-[4-(3,3-DIPHENYLPROPYLOXY)PHENYL]-1,2,3,6-TETRAHYDROPYRIDINE·HYDROCHLORIDE 0.6 HYDRATE] | 45.6 |  |
| Brc1ccc(OCCC(c2ccccc2)c2ccccc2)cc1 [Compound 17, 4-(3,3-DIPHENYLPROPOXY)BROMOBENZENE] | 643.5 |  |
| NCCc1ccc(OCCC(c2ccccc2)c2cccnc2)cc1 (stereo not drawn) [Compound 18, 2-[4-(3-PHENYL-3-(3-PYRIDYL)PROPOXY)PHENYL]ETHYLAMINE·OXALATE·0.1 HYDRATE] | > 100 |  |
| N=C(N)NCCc1ccc(OCCN(Cc2ccccc2)Cc2ccccc2)cc1 [Compound 23, 2-[4-(2-[N,N'-DIBENZYLAMINO]-ETHOXY)PHENYL]ETHYLGUANIDINE] | 60 |  |
| C1=C(c2ccc(OCCOC(c3ccccc3)c3ccccc3)cc2)CCNC1 [Compound 25, 4-{4-[2-(DIPHENYLMETHOXY) ETHOXY]PHENYL}-1, 2, 3, 6-TETRAHYDROPYRIDINE·MONOOXALATE 0.5 HYDRATE] | 313 |  |

Second part, led by results:

| IC50 (Kinase A and SpoOF) [µM] | Compound | MIC(G+/G-) [1] |
| --- | --- | --- |
| 21.5 | N=C(N)NCCc1ccc(OCCC(c2ccccc2)c2ccccc2)cc1 [Compound 3, 2-[4-(3,3-DIPHENYLPROPOXY)PHENYL]ETHYLGUANIDINE] |  |
| 19.8 | N=C(N)NCCc1ccc(OCCC2c3ccccc3-c3ccccc32)cc1 [Compound 4, {2-[4-[2-(9-FLUORENYL)ETHOXY]PHENYL]ETHYL}GUANIDINE] |  |
| 42.9 | NCc1cccc(OCCC(c2ccccc2)c2ccccc2)c1 [Compound 8, [3-(3,3-DIPHENYLPROPOXY)PHENYL]METHYLAMINE·HYDROCHLORIDE·0.6 HYDRATE] |  |
| 379.4 | O=C(CC(c1ccccc1)c1ccccc1)Nc1ccc(N2CCNCC2)cc1 [Compound 13, 4-[4-(3,3-DIPHENYLPROPANOYLAMINO) PHENYL]PIPERAZINE·0.5 HYDRATE] |  |
| 130.4 | O=C(O)C(=O)O.c1ccc(C(CCOc2ccc(N3CCNCC3)cc2)c2ccccc2)cc1 [Compound 14, 4-[4-(3,3-DIPHENYLPROPOXY)PHENYL]PIPERAZINE OXALATE] |  |
| > 500 | NCCc1ccc(NC/C=C(/c2ccccc2)c2cccnc2)cc1 [Compound 20, Z-2-[4-(3-PHENYL-3-(3-PYRIDYL)PROPENYLAMINO)PHENYL]-ETHYLAMINE·OXALATE·0.2DIETHYL ETHER·0.15 ETHYL ACETATE·0.5 HYDRATE] |  |
| > 500 | NCCc1ccc(NC/C=C(\c2ccccc2)c2cccnc2)cc1 [Compound 21, E-2-[4-(3-PHENYL-3-(3-PYRIDYL)-2-PROPENYLAMINO)PHENYL]-ETHYLAMINE·OXALATE·0.33 ETHYL ACETATE·0.5 HYDRATE] |  |
| 769 | c1ccc(C(OCCOc2ccc(N3CCNCC3)cc2)c2ccccc2)cc1 [Compound 24, 4-[4-{2-(DIPHENYLMETHOXY)ETHOXY}PHENYL]PIPERAZINE·CARBONATE 2.0 HYDRATE] |  |
